Tests used:
[1] = Thermal stability study by powder X-ray diffraction; format: physicochemical; settings: 140° C. oven with air circulation for 4 hours
Description: (§1) The procedure of powder X-ray diffraction test used for obtaining FIG. 1, FIG. 2, FIG. 7 and FIG. 8 is described as follows:
(§2) The crystalline polymorphs of acetyl-glycine-beta-alanine was analyzed by an X-ray powder Diffractometer, Bruker D8 Advanced, equipped with a Cu anode (λ=1.540600 Angstrom). X-ray source operated at 40 kV, 40 mA. The measuring 2-theta range was from about 5 to 60 degree and step width was 0.05 degree.
Thermal Stability Study for Both of Crystalline Polymorph A and Crystalline Polymorph B of Acetyl-Glycine-Beta-Alanine:
The crystalline polymorph A of acetyl-glycine-beta-alanine and crystalline polymorph B of acetyl-glycine-beta-alanine were stored at 140° C. oven with air circulation for 4 hours, and then analyzed with powder X-ray diffraction.

[2] = Solubility study in different solvents (HPLC); format: physicochemical; settings: for Solubility: room temperature, 30 min
Description: The Solubility Study of Crystalline Polymorph A and Polymorph B of Acetyl-Glycine-Beta-Alanine
According to the theory of thermodynamic of polymorphism, the most thermodynamic stable crystalline polymorph has lowest solubility. The solubility of both of the crystalline polymorph A and polymorph B of acetyl-glycine-beta-alanine were measured in different solvents.
The solubility measurement procedure was described as the following. Prepared a saturated acetyl-glycine-beta-alanine solution with 1 gram of test solvents and then stir it for 30 min at room temperature. Collected the solution through a filter and used HPLC to analyze its solubility. The solubility was represented by mg of the polymorphs/grams of the solvent.

[3] = Long term storage stability by powder X-ray diffraction; format: physicochemical; settings: room temperature for 1 year without any humidity controlling
Description: as §1, §2
Long term storage stability can be found in both crystalline polymorph A and crystalline polymorph B of acetyl-glycine-beta-alanine. The powder X-ray diffraction pattern of the crystalline polymorph A and crystalline polymorph B are shown as FIG. 1 and FIG. 2, wherein the crystalline polymorph A and crystalline polymorph B were stored at room temperature for 1 year without any humidity controlling.

[4] = Thermodynamic stable crystalline polymorph study: slurry equilibrium; format: physicochemical; settings: 5 g polymorph A + 5 g polymorph B in isopropanol/water 100 g/10 g; 40 to 45° C. 8 hours, then 25 to 30° C. 48 hours
Description: Thermodynamic Stable Crystalline Polymorph Study: Slurry Equilibrium
Both of 5 grams of crystalline polymorph A and 5 grams of crystalline polymorph B of acetyl-glycine-beta-alanine were put into a flask. 100 grams of isopropanol and 10 grams of water were added into the flask to form a mixture. The mixture was stirred at 40 to 45° C. for 8 hours and then at 25 to 30° C. for 48 hours. The mixture was cooled to 15 to 20° C. and the crystalline was filtered out. The crystalline was dried and analyzed with powder X-ray diffraction and Fourier transform infrared spectrum.

[5] = system: age spot; assay: In vivo human study, spot-brightening; settings: after 14 days
[6] = system: IL-6; assay: In vitro anti-inflammation study, IL-6 level after UVB exposure; format: cell-based; settings: human epidermal keratinocytes after exposure on UVB light
[7] = system: IL8; assay: In vitro anti-inflammation study, IL8 level after UVB exposure; format: cell-based; settings: human epidermal keratinocytes after exposure on UVB light
[8] = system: melanin formation; settings: taught in U.S. patent application Ser. No. 13/128,446; cited from earlier work
[9] = system: tissue model of the human epidermis prepared from cultured human keratinocytes and melanocytes; assay: Ex vivo whitening test in tissue model of the human epidermis; format: cell-based; settings: 2% of acetyl-glycine-beta-alanine, 9 day
[10] = taught in U.S. patent application Ser. No. 13/128,446; cited from earlier work
[11] = Ethanol/water: 95/5 (weight ratio)
[12] = Isopropanol/water: 3/1 (weight ratio)

Row | thermal stability (powder X-ray diffraction pattern) [1] | Solubility [2, 11] [mg/g] | Solubility [2, 12] [mg/g] | Solubility ([2]; Methanol) [mg/g] | Solubility ([2]; Water) [mg/g] | long term storage stability (powder X-ray diffraction pattern) [3] | thermodynamic stability (from solubility results) ([2]; concluded from lower solubility in various solvents) | SMILES | crystalline form obtained after slurry equilibrium [4] | age spot reduction (spot-brightening) [5] [%] | IL-6 level [6] | IL8 level [7] | inhibiting melanin formation [8] | existing melanin level (whitening efficacy) [9] [%] | color stability in the cosmetic formulation [10]
1 | changed | 23.9 | 76.4 | 32.4 | 223.2 | not changed |  | CC(=O)NCC(=O)NCCC(=O)O [crystalline polymorph B, acetyl-glycine-beta-alanine] |  |  |  |  |  |  | 
2 | still not changed | 18.4 | 62.3 | 26.5 | 177.0 | not changed | thermodynamically stable | CC(=O)NCC(=O)NCCC(=O)O [crystalline polymorph A, acetyl-glycine-beta-alanine] | the obtained crystalline was crystalline polymorph A |  |  |  |  |  | 
3 |  |  |  |  |  |  |  | CC(=O)NCC(=O)NCCC(=O)O [acetyl-glycine-beta-alanine] |  | 51.67 | reduced | reduced | capable of inhibiting melanin formation | −30 | good color stability

From patent US8927767B2, “Crystalline polymorphs of acetyl-glycine-beta-alanine and process of making the same” (Corum Inc., priority 2013, dated 2015)
